{"source": "ChEMBL document CHEMBL3046962", "about": "“Synthesis of new olefin chalcone derivatives as antitumor, antioxidant and antimicrobial agents” (Med Chem Res, 2012)", "assay_type_in_all_cases": "functional", "key": {"[1]": {"experiment": "Antioxidant activity assessed as ferric reducing activity at 1 mM after 5 min by UV-Visible spectrophotometry", "set-up": "scale not given: the % may be the effect or the level left"}, "[2]": {"experiment": "Antioxidant activity assessed as hydroxyl radical scavenging activity at 1 mM after 5 min by UV-Visible spectrophotometry"}, "[3]": {"tested_on": "Radical scavenging activity", "experiment": "Antioxidant activity assessed as DPPH radical scavenging activity at 1 mM after 20 min by UV-Visible spectrophotometry"}, "[4]": {"tested_on": "Proteus vulgaris", "experiment": "Antimicrobial activity against Proteus vulgaris MTCC 1751 at 20 ug after 24 hr by agar disk diffusion method", "conditions": "MTCC 1751, 24 h, read-out: DIZ"}, "[5]": {"tested_on": "Escherichia coli", "experiment": "Antimicrobial activity against Escherichia coli DH5[alpha] at 20 ug after 24 hr by agar disk diffusion method", "conditions": "read-out: DIZ"}, "[6]": {"tested_on": "Staphylococcus aureus", "experiment": "Antimicrobial activity against Staphylococcus aureus MTCC 96 at 20 ug after 24 hr by agar disk diffusion method", "conditions": "MTCC 96, 24 h, read-out: DIZ"}, "[7]": {"tested_on": "Candida albicans", "experiment": "Antimicrobial activity against Candida albicans MTCC 3017 at 10 ug after 48 hr by agar disk diffusion method", "conditions": "MTCC 3017, 48 h, read-out: DIZ"}}, "data": [{"smiles": "O=C1O[C@H]([C@@H](O)CO)C(O)=C1O", "values": [{"measurement": "Activity", "setting": "[1]", "result": 78.2, "unit": "%"}, {"measurement": "Activity", "setting": "[2]", "result": 88.3, "unit": "%"}, {"measurement": "Activity", "setting": "[3]", "result": 95.8, "unit": "%"}]}, {"smiles": "CN[C@@H]1[C@H](O[C@H]2[C@H](O[C@H]3[C@H](O)[C@@H](O)[C@H](N=C(N)N)[C@@H](O)[C@@H]3N=C(N)N)O[C@@H](C)[C@]2(O)C=O)O[C@@H](CO)[C@H](O)[C@H]1O", "note": "[STREPTOMYCIN]", "values": [{"measurement": "zone of inhibition at 20 µg/disc", "setting": "[4]", "result": 2.4, "unit": "mm"}, {"measurement": "zone of inhibition at 20 µg/disc", "setting": "[5]", "result": 2.5, "unit": "mm"}, {"measurement": "zone of inhibition at 20 µg/disc", "setting": "[6]", "result": 2, "unit": "mm"}]}, {"smiles": "OC(Cn1cncn1)(Cn1cncn1)c1ccc(F)cc1F", "note": "[FLUCONAZOLE]", "values": [{"measurement": "zone of inhibition at 10 µg/disc", "setting": "[7]", "result": 6.5, "unit": "mm"}]}]}
